Patent US9855244B2, “O/W-emulsion-type topical pharmaceutical compositions containing a retinoid” (GALDERMA RESEARCH & DEVELOPMENT, priority 2012, dated 2018)

How the values were obtained:
[1] = Stability of Compound A in mixtures of excipients (solvent/surfactants), determined by HPLC; assay type: physicochemical; conditions: limits 95%-105% relative to T0
Excerpt: (§1) The limits set for good stability are 95%-105% as relative percentage with respect to T0.

[2] = Pre-formulation studies: solubility of Compound A; assay type: physicochemical; conditions: in the solvents customarily used in the fatty phases of topical emulsions
Protocol: (§2) In order to produce an oil-in-water (O/W) emulsion according to the invention, pre-formulation studies were carried out in order to reveal the excipients enabling good solubilization and also good stability of the active agent.

[3] = Stability of Compound A in its principal oily solvents (determined by HPLC); assay type: physicochemical; conditions: limits 95%-105% relative to T0
Protocol: as §2
Stability of Compound A in its Principal Oily Solvents (Determined by HPLC)
as §1

[4] = "Single time" cutaneous penetration study, Franz cell, 16 h; assay type: in vitro ADME; conditions: 16 h application, ex vivo human skin, FIG. 1; stratum corneum, epidermis, dermis, receiving liquid
Excerpt: The in vitro tests are developed on glass diffusion cells (termed “Franz cells”) or Teflon diffusion cells, in static or dynamic modes. The cells consist of two compartments, a donor compartment and a receiver compartment, separated by a membrane, the orientation of which may be vertical or horizontal.
The membranes have a surface area generally of between 1 and 4 cm^2; they can be synthetic (cellulose, polydimethylsiloxane, etc.), but animal or human skin biopsies are preferable.
Samples of receiver liquid can be taken, at regular times over the course of 24 hours, in order to enable the establishment of the kinetics of diffusion through the skin when this proves necessary. At the end of a maximum of 24 h of application, in the case of the pharmaceutical and cosmetic products, the Franz cells are dismantled, and the substance studied is quantified in the following compartments: formulation remains, stratum corneum, epidermidis, dermis, and receiver liquid. The mass balance can in this case be established, which makes it possible to quantify the “absorbed” doses (present in the receiver liquid), the doses “having penetrated” (present in the viable epidermidis and the dermis) and the “nonabsorbed” doses (present in the formulation remains and the stratum corneum).
Two types of cutaneous penetration studies on human skin ex vivo were therefore carried out. […]

Stability results ([1]; Compound A 0.05% in Arlacel 165/Lauroglycol FCC): Unstable | Stability results ([1]; Compound A 0.05% in Cremophor EL/Labrafil M1944CS): Unstable | Stability results ([1]; Compound A 0.05% in Cremophor EL/Lauroglycol FCC): Unstable | Stability results ([1]; Compound A 0.05% in GlucateSS-Glucamate SSE-20/Arlamol E): Unstable | Stability results ([1]; Compound A 0.05% in Tween 80/Arlamol E): Unstable | Stability results ([1]; Compound A 0.2% in Cremophor EL/Labrafil M1944CS): Unstable | Stability results ([1]; Compound A 0.2% in Tween 80/Hexylene glycol): Unstable | Stability results ([1]; Compound A 0.2% in Tween 80/Lauroglycol FCC): Unstable | Solubility [2]: low solubility | Stability results ([3]; Compound A 0.005% in Miglyol 812N (Caprylic/capric triglycerides), 40° C.): Stable/Ok 6 Months | Stability results ([3]; Compound A 0.005% in Sweet almond oil, 40° C.): Stable/Ok 6 Months | Stability results ([3]; Compound A 0.05% in Arlacel 83V Pharma (Sorbitan Sesquioleate), 40° C.): Stable/Ok 6 Months | Stability results ([3]; Compound A 0.05% in Arlamol E (PPG-15 stearyl ether), 40° C.): Stable/Ok 6 Months | Stability results ([3]; Compound A 0.05% in Arlasolve DMI (Dimethyl Isosorbide)): Unstable | Stability results ([3]; Compound A 0.05% in Benzyl alcohol): Unstable | Stability results ([3]; Compound A 0.05% in Brij 30 (Laureth-4)): Unstable | Stability results ([3]; Compound A 0.05% in Capryol 90 (Propylene glycol monocaprylate), 40° C.): Stable/Ok 6 Months | Stability results ([3]; Compound A 0.05% in Dipropylene Glycol Care (Dipropylene glycol)): Unstable | Stability results ([3]; Compound A 0.05% in Eutanol G (Octyldodecanol)): Unstable | Stability results ([3]; Compound A 0.05% in Labrafil M1944CS (Apricot Kernel Oil PEG-6 Ester), 40° C.): Stable/Ok 6 Months | Stability results ([3]; Compound A 0.05% in Lauroglycol FCC (Propylene glycol laurate), 40° C.): Stable/Ok 6 Months | Stability results ([3]; Compound A 0.05% in Myritol PC (Propylene glycol dicaprylate/dicaprate)): Unstable | Stability results ([3]; Compound A 0.05% in Phenoxetol (Phenoxyethanol), 40° C.): Stable/Ok 6 Months
SMILES: CC(C)(C)c1cc(-c2cc(-c3ccc(C(=O)O)cc3)ccc2OCCO)ccc1N1CCCC1 [Compound A, 3″-Tert-butyl-4′-(2-hydroxyethoxy)-4″-pyrrolidin-1-yl[1,1′;3′,1″]terphenyl-4-carboxylic acid]
Distribution profile of compound A in the various skin compartments [4]: preferential localization and an accumulation of compound A in the stratum corneum and, less preferentially, in the epidermis
